Measured values reported in PubChem BioAssay (NCI).
Values joined by “and” are separate entries in the source; they are usually repeats but may differ in a detail not shown here. Identical values can stand only once.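 In this assay, cells in 96-well plates receive the compound at five concentrations for 48 hours. Endpoints are linearly interpolated between the surrounding concentrations. At the GI50, growth is halved. TGI is the concentration that stops growth completely.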

Assays:
Test in all cases: DTP human tumour cell line panel, 48 h
SK-MEL-28 melanoma = test system: SK-MEL-28 melanoma
NCI-H226 lung = test system: NCI-H226 lung
LOX IMVI melanoma = test system: LOX IMVI melanoma
NCI-H460 lung = test system: NCI-H460 lung
SNB-75 CNS = test system: SNB-75 CNS
SF-295 CNS = test system: SF-295 CNS
A498 renal = test system: A498 renal
OVCAR-3 ovarian = test system: OVCAR-3 ovarian
SF-268 CNS = test system: SF-268 CNS
HS 578T breast = test system: HS 578T breast

Row | Compound | TGI (SK-MEL-28 melanoma) | TGI (NCI-H226 lung) | TGI (LOX IMVI melanoma) | TGI (NCI-H460 lung) | TGI (SNB-75 CNS) | TGI (SF-295 CNS) | TGI (A498 renal) | TGI (OVCAR-3 ovarian) | TGI (SF-268 CNS) | GI50 (SK-MEL-28 melanoma) | GI50 (NCI-H226 lung) | GI50 (NCI-H460 lung) | GI50 (SNB-75 CNS) | GI50 (SF-268 CNS) | GI50 (SF-295 CNS) | GI50 (HS 578T breast) | TGI (HS 578T breast) | GI50 (A498 renal) | GI50 (OVCAR-3 ovarian) | GI50 (LOX IMVI melanoma)
1 | C/C=C/CP(=O)(c1ccccc1)c1ccccc1 | > 100 µM | > 100 µM | > 100 µM | > 100 µM | > 100 µM | > 100 µM | > 100 µM | > 100 µM |  |  |  |  |  |  |  |  |  |  |  | 
2 | NC(=S)N/N=C1\C(=O)N(c2cccc([N+](=O)[O-])c2)C(=O)C1C(=O)Nc1cccc([N+](=O)[O-])c1 (configuration not stated) | > 100 µM | > 100 µM | > 100 µM |  | > 100 µM | > 100 µM | > 100 µM | > 100 µM | > 100 µM |  |  |  |  |  |  |  |  |  |  | 
3 | CCN(CC)CCCC(C)N/C(c1cccc(OC)c1)=c1\c(=O)[nH]n(-c2c3ccccc3nc3ccccc23)c(=O)\c1=C(/NC(C)CCCN(CC)CC)c1cccc(OC)c1 (configuration not stated) | 3.17 µM | 3.63 µM |  | 2.56 µM | 2.74 µM | 3.86 µM | 2.93 µM | 5.4 µM | 4.87 µM | 1.69 µM | 1.16 µM | 0.428 µM | 1.41 µM | 1.4 µM | 1.74 µM | 2.3 µM | 7.28 µM | 1.52 µM | 1.8 µM | 
4 | Cc1cc2c(cc1C)[n+](=O)c(C(=O)c1cccs1)c(C(F)(F)F)n2[O-] | 28.9 µM and 46.2 µM | 50 µM | 12.3 µM and 13.2 µM | 6.35 µM and 16.9 µM | 18.7 µM | 3.34 µM and 12.9 µM |  | 9.78 µM and 4.34 µM | 4.11 µM and 3.61 µM | 8.83 µM and 12.3 µM | 4.06 µM | 1.19 µM and 1.86 µM | 1.02 µM | 1.12 µM and 0.978 µM | 0.603 µM and 2.89 µM |  |  |  | 1.44 µM and 0.744 µM | 
5 | COc1cc(/C=C2\C[C@H]3[C@@H]4CC=C5C[C@@H](OC(C)=O)CC[C@]5(C)[C@H]4CC[C@]3(C)[C@H]2OC(C)=O)ccc1OCCCn1ccnc1 | > 50 µM | 24.6 µM | 14.9 µM | 22.9 µM |  | 12.4 µM | 15 µM | 26.2 µM | 21.6 µM | 15.9 µM | 7.78 µM | 9.2 µM |  | 9.63 µM | 4.77 µM | 5.85 µM | 16.5 µM | 7.19 µM | 12.3 µM | 7.46 µM
6 | O=C(Nc1ccc(N=Nc2ccccc2)cc1)Sc1ccccc1C(=O)O | > 100 µM | > 100 µM | > 100 µM | > 100 µM | > 100 µM | > 100 µM | > 100 µM | > 100 µM | > 100 µM |  |  |  |  |  |  |  |  |  |  | 
7 | CC(=O)Oc1cc2c(=O)oc3c(OC(C)=O)c(OC(C)=O)c(OC(C)=O)c4c(=O)oc(c1OC(C)=O)c2c34 | > 100 µM | 99 µM | 32.6 µM | > 100 µM | > 100 µM | 52.9 µM | > 100 µM | > 100 µM | > 100 µM |  |  |  |  |  |  |  |  |  |  | 
8 | N#CC(c1ccc(Cl)cc1)c1cccc(Cl)n1 (configuration not stated) | > 100 µM | > 100 µM |  | > 100 µM | 84.3 µM | > 100 µM | > 100 µM | > 100 µM | > 100 µM |  |  |  |  |  |  |  |  |  |  | 
9 | N#Cc1c(C(N)=O)ncn1Cc1ccccc1 |  | > 100 µM | > 100 µM | > 100 µM | > 100 µM | > 100 µM | > 100 µM | > 100 µM | > 100 µM |  |  |  |  |  |  |  |  |  |  | 
10 | O=C(CSc1nc2sc3c(c2c(=O)n1-c1ccccc1)CCCCC3)N/N=C/c1ccc(F)cc1 | 13.1 µM | 4.84 µM | 14.8 µM | 2.98 µM | 4.93 µM | 14.7 µM |  | 4.07 µM | 6.57 µM | 3.24 µM | 2.09 µM | 1.12 µM | 1.85 µM | 2.14 µM | 3.8 µM | 1.01 µM | 4.96 µM |  | 1.78 µM | 2.35 µM
11 | O=C(CC1(O)C(=O)Nc2ccccc21)c1ccc(O)cc1O (configuration not stated) | > 100 µM | > 100 µM | > 100 µM | > 100 µM | > 100 µM | > 100 µM | > 100 µM | > 100 µM | > 100 µM |  |  |  |  |  |  |  |  |  |  | 
12 | Cc1ccc(NC(=O)/C(=N/NC(=O)CC#N)C2C(=O)N(c3ccccc3)N=C2N)cc1C (configuration not stated) | > 100 µM | > 100 µM | > 100 µM | > 100 µM | > 100 µM | > 100 µM | > 100 µM | > 100 µM | > 100 µM |  |  |  |  |  |  |  |  |  |  | 
13 | Cn1c(Cc2ccccc2)nc2cc3ccccc3cc21 | > 100 µM | 56.8 µM | 64.7 µM | > 100 µM |  | 75.6 µM |  | > 100 µM | > 100 µM | 37.9 µM | 22.7 µM | 27.6 µM |  | 34.7 µM | 25.5 µM | 22.2 µM | 57.7 µM |  | 36.4 µM | 24 µM
14 | Cc1ccc(C2=NN(C)COC2C(F)(F)F)cc1 (configuration not stated) | > 100 µM | > 100 µM |  | > 100 µM | > 100 µM | > 100 µM |  | > 100 µM | > 100 µM |  |  |  |  |  |  |  |  |  |  | 
15 | COc1ccc(C2c3cc4c(cc3OC(O)(CO)C2C(=O)O)OCO4)c(OC)c1OC (configuration not stated) (tested in a mixture with another compound) | > 100 µM |  | > 100 µM | > 100 µM | > 100 µM | > 100 µM |  | > 100 µM |  |  |  |  |  |  |  |  |  |  |  | 
16 | CO/C=C/c1cc2c(cc1C(OC)OC)OCO2 | > 100 µM | > 100 µM |  | > 100 µM | 36.8 µM |  |  | 80.9 µM | > 100 µM |  |  |  |  |  |  |  |  |  |  | 
17 | CCCN1C(=O)/C(=C/c2ccc(O)cc2)SC1=Nc1ccccc1 | 50.9 µM | 54.1 µM | 29.3 µM | 29.9 µM |  | 68.7 µM |  | 33.8 µM | 32.4 µM | 27.7 µM | 30.3 µM | 15.2 µM |  | 17.1 µM | 27.9 µM |  |  |  | 17.8 µM | 14.7 µM
18 | CCC12CC[C@H](C#N)N3CCc4c(n(c5ccccc45)C(=O)C1)C32 (some centres not stated) | 40.4 µM |  | 27.3 µM | 33.8 µM | 27.6 µM | 31.2 µM | 35.1 µM | 29 µM | 53.7 µM |  |  |  |  |  |  |  |  |  |  | 
19 | O=C(O/N=C1/CCC/C1=C\c1ccccc1)c1ccccc1 | > 100 µM | > 100 µM | > 100 µM |  | > 100 µM | > 100 µM | > 100 µM | > 100 µM | > 100 µM |  |  |  |  |  |  |  |  |  |  | 
